Test results: patent US8158811B2, “Unsaturated fatty hydroxy acid derivatives and the dermocosmetologic use thereof” (Pierre Fabre Dermo-Cosmetique, priority 2005, dated 2012)

Columns and labels:
[1] = test system: membrane lipids, fibroblast line L929; assay: TBARS test, lipid peroxidation after H2O2/Fe2+/Fe3+; type: cell-based, murin; details: 0.02 ng/ml, pretreated 16 hours
Text: In order to evaluate membrane changes, we measured lipid peroxidation by in vitro assay of complexes between the products of lipid oxidation and thiobarbituric acid. These complexes are called TBARS (thiobarbituric acid reactive substances) and give the test its name: TBARS Test.
In order to mimic chemical oxidative stress, we treated a fibroblast line (L929) with a complex consisting of hydrogen peroxide (H2O2) and iron (Fe^2+/Fe^3+) thus reconstituting the Fenton reaction which is the source of oxygenated free radicals and particularly the hydroxyl radical (OH°) (D. A Vessey et al. 1992): H2O2+Fe^2+→OH°+OH^−+Fe^3+
The products were evaluated on a murin fibroblast line L929. Cells were pretreated with different concentrations of the product for 16 hours and were then stimulated with the H2O2/Fe^2+/Fe^3+ complex (200 μM−1 mM) for 1 hour. • Stock solutions: 100 mg/ml ethanol, 4° C. • Final solutions: 0.02 ng/ml.
Peroxidation of membrane lipids was analysed by measuring TBARS (Protocol ref. PLN°2, according to Morliere et al, 1991).
[…]. TBARS assays are therefore expressed in pmole/μg of protein. Proteins and TBARS are assayed in the intracellular medium.
Using the TBARS calculation in pmole/μg protein, we calculated the protective efficacy of various products against the oxidation of lipid membranes.
Four separate experiments were carried out. Several compounds were evaluated in the course of these experiments (the test only allows 10 molecules to be evaluated at one time). The compounds were evaluated several times and were chosen as a function of the results obtained in another test which also measured anti-radical activity (assay test for activated oxygen species).
The model used in this experiment (Fenton reaction) triggers considerable lipid peroxidation of the L929 fibroblasts. This massive release of the hydroxyl radical OH° thus generates oxidative stress in the cells, particularly in the membranes. However, in this type of oxidative reaction, the products resulting from lipid peroxidation are internalized in the cells and TBARS are therefore assayed in the intracellular medium.

transglutaminase 1 (TG1) = assay: keratinocyte differentiation, real-time RT-PCR of transglutaminase 1 transcripts; type: cell-based, human; details: NHK, 48 hours
Protocol: (§1) Normal human keratinocytes (NHK) proliferate and differentiate in vitro, forming stratified layers which mimic the basal organisation of the skin. Extracellular calcium concentrations in excess of 0.1 mM initiate a cascade of genome and non-genome events which take the keratinocytes from a proliferative phase towards a differentiation phase. Keratinocyte differentiation can then be evaluated by studying the expression of several markers such as keratins 1 and 10, transglutaminase 1, desaturase DES2, involucrine, FATP4 and ABCG1 transporters. We therefore evaluated the effect of certain hydroxyalcene carboxylic acids in an in vitro culture model.
(§2) Normal human keratinocytes are isolated from skin explants. They are cultured in KSFM medium (Gibco) with a low calcium content (0.1 mM) containing 25 μg/ml of BPE (bovine pituitary extract) and […] of EGF (epithelium growth factor). 24 hours after culturing, differentiation is triggered by the addition of calcium (final concentration 1.2 mM). The active ingredients are added or not at the same time as calcium at concentrations of 100 and 1 μg/ml in order to determine whether or not they have a potentialising effect on differentiation. Cells were then analysed 48 hours after the addition of calcium and these products.
(§3) Total RNA was extracted under cold conditions from keratinocytes.
(§4) After reverse transcription of mRNA into cDNA, PCRs were made up in 96 well plates (iCycler quantitative PCR apparatus, BioRad). Expression of transcripts of transglutaminase, desaturase (DES2), ABCG1 and FATP4 were standardized with respect to the expression of reference genes (GAPDH, UBC, HPRT).

desaturase DES2 = assay: keratinocyte differentiation, real-time RT-PCR of DES2 transcripts; type: cell-based, human; details: NHK, 48 hours
Protocol: as §1, §2, §3, §4

[2] = test system: intracellular AOSs, fibroblast line L929; assay: in vitro assay of intracellular AOSs (H2DCF-DA probe) after H2O2/iron oxidative stress; type: cell-based, murin; details: pre-incubation 3 h, L929
Text: We set up an in vitro study model of oxidative stress induced by H2O2/iron as H2O2 generates huge amounts of intracellular AOSs as a result of a chain reaction triggered by oxidation of membrane lipids.
This technique is based on the use of a fluorescent probe, 6-carboxy-2′,7′-dichlorodihydro fluorescein diacetate, di (acetoxymethyl ester) (H2DCF-DA) which once it penetrates into the cell is deacetylated by intracellular esterases and thus forms H2DCF. This product is oxidized by intracellular AOSs into a highly fluorescent compound: 2′,7′-dichlorofluorescein (DCF) (Suematsu M et al., 1996, Free Radicals Practical Approach, Punchard ed. P 83-99).
The materials and methods used for in vitro assay of intracellular AOSs are given below. • a) Cell tool • Cutaneous murin fibroblast cell line L929. • b) Materials • 96 well flat based microplate. • Cytofluor II cytofluorameter: Ref. PERCEPTIVE BIOSYSTEMS. • c) Reagents • Cell culture reagents: • Dulbecco's Modified Eagle Medium as the culture medium (DMEM) • Foetal calf serum • Phosphate buffer PBS pH 7.4 • Trypsin EDTA (1X) Fluorescent probe • 6-carboxy-2′,7′-dichlorodihydrofluorescein diacetate, di(acetoxymethyl ester) (PM.675,43) Cell stimulation products • Hydrogen peroxide (H2O2) 3% Ref. GIFRER (Gifrer Barbezat Laboratory) • Ferrous ammonium sulphate (Fe^2+) • Ferric ammonium sulphate (Fe^3+) • d) Products tested:
For the evaluation of unsaturated fatty hydroxy acid derivatives, the dilutions are prepared in freshly prepared culture medium for a concentration range of 0.02, 0.2, 2 and 20 ng/ml. • e) Protocol. Cell culturing.
Cells from the fibroblast line L929 were cultured in 96-well flat base microplates in 100 μl of DMEM supplemented with 10% foetal calf serum. These were incubated overnight at 37° C. in a humid atmosphere at 5% CO2. The blank plate without cells was evaluated using 6 wells.
Dilutions of the products to be tested and reference molecule were made up in culture medium without foetal calf serum then deposited in 7 wells at a rate of 100 μl per well.
Cells were then incubated for 3 hours at 37° C. in a humid atmosphere at 5% CO2.
Cells were rinsed in PBS 1X at a rate of 100 μl per well. They were then incubated for 30 minutes at 37° C. in a humid atmosphere at 5% CO2 with 50 μl of the H2DCF-DA probe at 5 μM.
After 30 minutes of contact with the probe alone, cells were incubated for 30 minutes at 37° C. in a humid atmosphere at 5% CO2 with the addition of 25 μl of H2O2 at 800 μM and 25 μl of ferrous iron and ferric iron solution at 8 mM in order to obtain final concentrations of 200 μM of H2O2 and 2 mM of ferrous iron and ferric iron.
Cells were then rinsed with PBS 1X at a rate of 100 μl per well then incubated for 30 minutes at 37° C. in a humid atmosphere at 5% CO2 with 100 μl of PBS 1X.
This incubation for 1 h 30 minutes at 37° C. allows intracellular esterases to deacetylate the probe into H2DCF which can be oxidized by the intracellular AOSs into DCF: a fluorescent compound whose formation is proportional to the quantity of intracellular AOSs.
The intensity of fluorescence is read on a cytofluorimeter at λexcitation=485 nm and λemission=530 nm. This reflects the amount of intracellular AOS produced.
The ratio below makes it possible to calculate the % protection against the production of intracellular AOSs for each product concentration tested (because the intensity of fluorescence or IF reflects the release of intracellular AOSs)
• Pre-incubation: 3 h • Number of tests=3 for all compounds. • Number of tests=18 for vit. E

ABCG1 = assay: keratinocyte differentiation, real-time RT-PCR of ABCG1 transcripts; type: cell-based, human; details: NHK, 48 hours
Protocol: as §1, §2, §3, §4

FATP4 = assay: keratinocyte differentiation, real-time RT-PCR of FATP4 transcripts; type: cell-based, human; details: NHK, 48 hours
Protocol: as §1, §2, §3, §4

Interleukin 8 = assay: release of Interleukin 8 by keratinocytes NHK stimulated with PMA + calcium ionophore A23187 (ELISA); type: cell-based, human; details: 3 μg/ml, keratinocytes, PMA + A23187 6 hours
Protocol: In this study, carried out using 96 well plates, we evaluated the activity of hydroxyl alkine acids on the production of Interleukin 8 produced in the keratinocytes by phorbol ester PMA and calcium ionophore A23187.
A suspension of keratinocytes in supplemented KSFM was divided between 96 well plates (3.10^4 cells/wells) and incubated for 16 hours at 37° C. under an atmosphere of 5% CO2. The keratinocytes were then rinsed with PBS in order to eliminate non adhering cells then exposed to the products to be tested included in non supplemented KSFM (which could interfere with the assay).
The concentration tested in culture was 3 μg/ml. This was retained after a preliminary test to evaluate cytotoxicity (neutral red) and is not cytotoxic.
3 wells were used for each treatment. Cells were preincubated for 60 minutes with the products to be tested then stimulated, in parallel to negative controls without stimulant: Phorbol Myristate Acetate (PMA) 1 μm+Calcium ionophore (A23187) 0.1 μm.
Incubation for 6 hours at 37° C. in a humid air atmosphere containing 5% CO2.
The culture medium for each of the wells was recovered, centrifuged at 3000 rpm and stored at −80° C.
Cytokine assay: IL8 was assayed using the ELISA kit immunoenzyme method (immunotech).
The results are given as percentage activity/stimulated control.
The compounds according to the invention were evaluated in terms of anti-inflammatory activity on the release of Interleukin 8 by human keratinocytes NHK stimulated by phorbol ester PMA+calcium ionophore A23187.

PAR-2 receptors = biological target: T1, PAR-2 receptors (Homo sapiens, UniProt P55085); assay: calcium flux induced by trypsin stimulation of PAR-2 receptors in HaCaT keratinocytes (Fluo-4/AM); type: cell-based; details: trypsin 10 nM
T1 construct: PAR-2 receptors for trypsin present in human keratinocytes from the HaCaT line; endogenous in cells; host or cells: HaCaT human keratinocytes
T1 sequence (P55085 26-397): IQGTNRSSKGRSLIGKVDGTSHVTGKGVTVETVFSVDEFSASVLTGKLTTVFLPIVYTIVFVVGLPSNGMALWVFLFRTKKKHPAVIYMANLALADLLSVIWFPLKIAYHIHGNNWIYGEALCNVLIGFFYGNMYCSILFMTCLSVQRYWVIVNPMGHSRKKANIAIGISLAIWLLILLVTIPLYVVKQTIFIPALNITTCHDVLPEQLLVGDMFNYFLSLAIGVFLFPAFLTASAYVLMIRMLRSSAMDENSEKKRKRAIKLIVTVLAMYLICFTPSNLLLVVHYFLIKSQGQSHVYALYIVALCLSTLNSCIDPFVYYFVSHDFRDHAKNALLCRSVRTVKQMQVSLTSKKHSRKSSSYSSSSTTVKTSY
Text: We therefore considered evaluating anti-PAR-2 activity of hydroxyl acid derivatives of formula I on the influx of intracellular calcium induced after specific stimulation by PAR-2 receptors for trypsin present in human keratinocytes from the HaCaT line.
This technique is based on the use of an esterified fluorescent probe by an AM group which facilitates its penetration by passive diffusion into the cell. The probe used is Fluo-4/AM. Only the de-esterified form bound to the calcium ion is excitable in fluorescence (at 485 nm) and emits at 535 nm.
In vitro, at the cell level, specific stimulation of the PAR-2 receptors by trypsin leads to mobilisation of intra and extracellular calcium detected with the aid of the fluorescent probe.

Structure (SMILES)	% membrane lipid protection, Mean [1] [%]	Induction Factor vs Control (CaCl2 1.2 mM) TG1 (transglutaminase 1 (TG1); 1 μg/ml)	Induction Factor vs Control (CaCl2 1.2 mM) TG1 (transglutaminase 1 (TG1); 100 μg/ml)	Induction Factor vs Control (CaCl2 1.2 mM) DES2 (desaturase DES2; 1 μg/ml)	Induction Factor vs Control (CaCl2 1.2 mM) DES2 (desaturase DES2; 100 μg/ml)	Percentage inhibition of the intracellular production of AOS ([2]; 0.02 ng/ml) [%]	Percentage inhibition of the intracellular production of AOS ([2]; 0.2 ng/ml) [%]	Percentage inhibition of the intracellular production of AOS ([2]; 2 ng/ml) [%]	Percentage inhibition of the intracellular production of AOS ([2]; 20 ng/ml) [%]	Induction Factor vs Control (CaCl2 1.2 mM) ABCG1 (ABCG1; 1 μg/ml)	Induction Factor vs Control (CaCl2 1.2 mM) ABCG1 (ABCG1; 100 μg/ml)	Induction Factor vs Control (CaCl2 1.2 mM) FATP4 (FATP4; 1 μg/ml)	Induction Factor vs Control (CaCl2 1.2 mM) FATP4 (FATP4; 100 μg/ml)	% inhibition of IL-8 release (Interleukin 8)	% inhibition (PAR-2 receptors; 10 μg/ml) [%]	% stimulation (PAR-2 receptors; 10 μg/ml) [%]	% inhibition (PAR-2 receptors; 30 μg/ml) [%]	% stimulation (PAR-2 receptors; 30 μg/ml) [%]	% inhibition (PAR-2 receptors; 100 μg/ml) [%]	% stimulation (PAR-2 receptors; 100 μg/ml) [%]
O=C(O)C(F)=CCCCCO (mixture of isomers) [n=3, R=H, Rn=H, R1=F]	38.14	1.5	0.9	1.7	1.9	3	−3	−32	−51	1.5	1.2	1.2	1.2							
O=C(O)C(F)=CCCCCCCCCCCCCCCCO (mixture of isomers) [n=14, R=H, Rn=H, R1=F]	35.30	1.7		2.8		6	−17	−26	−42	4.0		1.0								
O=C(O)/C=C/CCCCCCO [n=5, R=H, Rn=H, R1=H, 9-hydroxy-nona-2t-enoic acid]		1.5		1.8		56	47	46	36	2.7		1.0								
O=C(O)/C=C/CCCCCCCCCCCCCCCO [n=14, R=H, Rn=H, R1=H, 18-hydroxy-octadec-2t-enoic acid]														Non-active	−10	14.68	8	12.90	23	11.37
